Experimental data published in patent US5637591A, “Antimicrobial and anticollagenase activity of phenazine-5, 10-dioxide and derivatives” (Fuji ImmunoPharmaceuticals Corp., priority 1995, dated 1997).
Converted amounts (≈) assume the structure as drawn. Like-named read-outs stand apart in the source and are kept apart here.

Legend:
[1] = system: P. gingivalis strain 2561; experiment: minimum inhibitory concentration by addition to plating medium; assay type: cell-based; conditions: for MIC: Porphyromonas gingivalis, 2561, 168 h, read-out: P. gingivalis MIC; for concentration range of activity against P. gingivalis: molar basis; for activity greater than Tetracycline against P. gingivalis: weight-concentration basis
Experimental: (§1) Solutions of the agents were tested for activity against Escherichia coli strain DH5α by a zone inhibition method, and against P. gingivalis strain 2561 by addition to plating medium to determine minimum inhibitory concentrations (M/C). For the zone inhibition study, a suspension of E. coli was spread on the surface of an agar plate. A 3 mm diameter paper disk was placed on the seeded agar surface, and 10 μl of solution of each compound formulated at 1 mg/ml was added to the disk. Plates were incubated overnight at 37° C. The radius of the zone of inhibition was measured from the center of the disk to the edge of the E. coli bacterial lawn. For determination of MIC, drug solutions were mixed with plating medium to produce a range of final drug concentrations. Media with drug were plated in the wells of 24-well plates. A drop of bacterial suspension containing 2-5×10^2 CFU P. gingivalis was placed on each well. Plates were incubated 1 week in an anaerobic chamber at 37° C.

[2] = system: Peptostreptococcus anaerobius; experiment: anaerobic liquid culture growth inhibition, OD 650 nm; assay type: cell-based; conditions: anaerobic overnight, OD 650 nm, read-out: IC50 Peptostreptococcus anaerobius
[3] = system: Porphyromonas gingivalis 2561; experiment: as above; assay type: cell-based; conditions: Porphyromonas gingivalis, 2561; anaerobic overnight, OD 650 nm; read-out: IC50 Porphyromonas gingivalis 2561
Fusobacterium nucleatum = experiment: as above; assay type: cell-based; conditions: anaerobic overnight, OD 650 nm, read-out: IC50 Fusobacterium nucleatum
Bacteroides levii = experiment: as above; assay type: cell-based; conditions: Porphyromonas levii; anaerobic overnight, OD 650 nm; read-out: IC50 Bacteroides levii
[4] = system: Fusobacterium necrophorum; experiment: as above; assay type: cell-based; conditions: anaerobic overnight, OD 650 nm, read-out: IC50 Fusobacterium necrophorum
Bacteroides fragilis = experiment: as above; assay type: cell-based; conditions: anaerobic overnight, OD 650 nm, read-out: IC50 Bacteroides fragilis
[5] = system: Escherichia coli strain DH5α; experiment: zone inhibition method on agar plate; assay type: cell-based; conditions: Escherichia coli; 10 μl of 1 mg/ml on 3 mm paper disk, overnight 37° C.; radius from center of disk; read-out: E. coli Clear Zone
Experimental: as §1

[6] = oral bioavailability in rats (AUC versus intravenous); conditions: rat, in vivo
Experimental: The bioavailibility of orally delivered substituted phenazine-5,10-dioxideswas measured because oral delivery also can comprise systemic administration. The bioavailibility was assessed for the phenazine-5,10-dioxide derivative, 2-aminophenazine-5,10-dioxide administered by oral gavage to rats. Vehicles and dose levels are detailed in Table 9. Calculations of bioavailability (F) following oral administration were made based on area under the curve (AUC) calculations and comparsion with intravenous administration.

[7] = system: Porphyromonas gingivalis RB-22D-1; experiment: anaerobic liquid culture growth inhibition, OD 650 nm; assay type: cell-based; conditions: RB22D1, anaerobic overnight, OD 650 nm, read-out: IC50 Porphyromonas gingivalis RB-22D-1
Clostridium perfringens = experiment: microbe, parasite or virus in culture; assay type: cell-based; conditions: read-out: IC50 Clostridium perfringens
P. gingivalis = experiment: bone loss after oral colonization with P. gingivalis in mice, systemic administration; assay type: in vivo, BALB/c mice; conditions: infected mice, IP daily; 25 d (2-methylphenazine-5,10-dioxide) or 40 d (Tetracycline)
Experimental: An animal model for testing the antimicrobial activity of the invention against P. gingivalis was conducted by inducing oral colonization of the microbe in BALB/c mice. Drug (2-methylphenazine-5,10-dioxide or Tetracycline) or control (2.5% cyclodextran) was administered intraperitoneally once each day for 25 days (2-methylphenazine-5,10-dioxide) or 40 days (Tetracycline). On the day following the last dose administration, the rear molars of the mice were swabbed and the swabs incubated in a growth medium to assess the presence of P. gingivalis. Mice were then sacrificed and jaw bones harvested for evaluation of bone loss.

[8] = assay type: in vivo; conditions: for Other Signs of Toxicity: in vivo
Experimental: Toxicity was also evaluated in rodents via intravenous (IV) and oral (PO) routes of administration across a range of dose levels.

[9] = assay type: in vivo; conditions: for Other Signs of Toxicity: mouse, in vivo, ip
Source text: The potential for toxic side effects following systemic administration similar to the method used in the efficacy study was investigated by administering the compound 2-methylphenazine-5,10-dioxide to mice either in single or multiple intraperitoneal (IP) injections.

[10] = complete inhibition of growth, 1 week anaerobic, 37° C.

For `Nc1ccc2c(c1)[n+]([O-])c1ccccc1[n+]2[O-]` [2-aminophenazine-5,10-dioxide], the MIC ([1]; MIC on a molar basis) was 0.009 µM, the MIC [1, 10] was 0.002 µg/mL and the “concentration range of activity against P. gingivalis” value [1] was “nanomolar concentration range”. The “activity greater than Tetracycline against P. gingivalis” value [1] was “more than 100 fold”, the IC50 [2] was 0.06 µg/mL (≈ 0.264 µM) and the IC50 [3] was 0.04 µg/mL (≈ 0.176 µM). The IC50 (Fusobacterium nucleatum) was 10 µg/mL (≈ 44 µM), the IC50 (Bacteroides levii) was 0.03 µg/mL (≈ 0.132 µM) and the IC50 [4] was 0.03 µg/mL (≈ 0.132 µM). It also gave an IC50 (Bacteroides fragilis) of 1 µg/mL (≈ 4.4 µM), a zone of inhibition at 1000 µg/mL [5] of 32 mm and an AUC ([6]; iv, 10 mg/kg, rats, 10 mg/kg IV administration) of 390 ng·h/mL. For the same compound, the AUC ([6]; po, 50 mg/kg, rats, 50 mg/kg oral, 2% Brij35/water) was 1480 ng·h/mL, the bioavailability ([6]; po, 50 mg/kg, rats, 50 mg/kg oral, 2% Brij35/water, compared to 10 mg/kg IV, read-out: F (Bioavailability)) was 76% and the AUC ([6]; po, 50 mg/kg, rats, 50 mg/kg oral, 10% Brij35/Mineral oil) was 2380 ng·h/mL. It also gave a bioavailability ([6]; po, 50 mg/kg, rats, 50 mg/kg oral, 10% Brij35/Mineral oil, compared to 10 mg/kg IV, read-out: F (Bioavailability)) of 120%, an AUC ([6]; po, 50 mg/kg, rats, 50 mg/kg oral, 10% Brij35/water) of 1250 ng·h/mL and a bioavailability ([6]; po, 50 mg/kg, rats, 50 mg/kg oral, 10% Brij35/water, compared to 10 mg/kg IV, read-out: F (Bioavailability)) of 64%. The AUC ([6]; po, 50 mg/kg, rats, 50 mg/kg oral, water) was 1740 ng·h/mL, the bioavailability ([6]; po, 50 mg/kg, rats, 50 mg/kg oral, water, compared to 10 mg/kg IV, read-out: F (Bioavailability)) was 89% and the AUC ([6]; po, 60 mg/kg, rats, 60 mg/kg oral, Cremaphor) was 103 ng·h/mL. It also gave a bioavailability ([6]; po, 60 mg/kg, rats, 60 mg/kg oral, Cremaphor, compared to 10 mg/kg IV, read-out: F (Bioavailability)) of 4%, an AUC ([6]; po, 100 mg/kg, rats, 100 mg/kg oral, Arlacel 83) of 2630 ng·h/mL and a bioavailability ([6]; po, 100 mg/kg, rats, 100 mg/kg oral, Arlacel 83, compared to 10 mg/kg IV, read-out: F (Bioavailability)) of 67%. The AUC ([6]; po, 100 mg/kg, rats, 100 mg/kg oral, Encapsin CD) was 3520 ng·h/mL, the bioavailability ([6]; po, 100 mg/kg, rats, 100 mg/kg oral, Encapsin CD, compared to 10 mg/kg IV, read-out: F (Bioavailability)) was 90% and the AUC ([6]; po, 100 mg/kg, rats, 100 mg/kg oral, PEG (Polyethyleneglycol)) was 3940 ng·h/mL. For the same compound, the bioavailability ([6]; po, 100 mg/kg, rats, 100 mg/kg oral, PEG (Polyethyleneglycol), compared to 10 mg/kg IV, read-out: F (Bioavailability)) was 100%, the IC50 [7] was 0.12 µg/mL (≈ 0.528 µM) and the IC50 (Clostridium perfringens) was 1 µg/mL (≈ 4.4 µM).
For `Cc1ccc2c(c1)[n+]([O-])c1ccccc1[n+]2[O-]` [2-methylphenazine-5,10-dioxide], the MIC ([1]; MIC on a molar basis) was 0.018 µM, the MIC [1, 10] was 0.004 µg/mL and the “concentration range of activity against P. gingivalis” value [1] was “nanomolar concentration range”. For the same compound, the “activity greater than Tetracycline against P. gingivalis” value [1] was “more than 100 fold”, the IC50 [2] was 0.2 µg/mL (≈ 0.884 µM) and the IC50 [3] was 0.16 µg/mL (≈ 0.707 µM). For the same compound, the “effect of treatment on bone loss” value (P. gingivalis) was “reduced the observed bone loss”, the IC50 (Fusobacterium nucleatum) was over 10 µg/mL and the IC50 (Bacteroides levii) was 1 µg/mL (≈ 4.42 µM). For the same compound, the IC50 [4] was 1.5 µg/mL (≈ 6.63 µM), the IC50 (Bacteroides fragilis) was 7 µg/mL (≈ 30.9 µM) and the Deaths ([8]; Mice, 5 mg/kg IV, 25% Cremaphor, 1 administration) was 0. It also gave a Deaths ([8]; Mice, 5 mg/kg IV, 30% Encapsin CD, 1 administration) of 0, a Deaths ([8]; Mice, 5 mg/kg IV, 100% DMSO, 1 administration) of 0 and a Deaths ([8]; Mice, 30 mg/kg IV, 10% Cremaphor, 1 administration) of 0. It also gave a Deaths ([8]; Mice, 40 mg/kg IV, 25% Cremaphor, 1 administration) of 0, a Deaths ([8]; Mice, 50 mg/kg IV, 30% Encapsin CD, 1 administration) of 0 and a Deaths ([8]; Mice, 800 mg/kg PO, 100% Cremaphor, 1 administration) of 0. The Deaths ([8]; Mice, 1000 mg/kg PO, 100% Cremaphor, 1 administration) was 1/2, the Deaths ([8]; Rats, 5 mg/kg IV, 20% Cremaphor, 1 administration) was 0 and the Deaths ([8]; Rats, 10 mg/kg IV, 25% Encapsin CD/10% DMSO, 1 administration) was 0. For the same compound, the Deaths ([8]; Rats, 20 mg/kg IV, 30% Encapsin CD, 1 administration) was 0, the Deaths ([8]; Rats, 50 mg/kg PO, 2% Brij 35/Water, 1 administration) was 0 and the Deaths ([8]; Rats, 50 mg/kg PO, 10% Brij 35/Mineral Oil, 1 administration) was 0. It also gave a Deaths ([8]; Rats, 50 mg/kg PO, 10% Brij 35/Water, 1 administration) of 0, a Deaths ([8]; Rats, 50 mg/kg PO, Water, 1 administration) of 0 and a Deaths ([8]; Rats, 80 mg/kg PO, 10% Cremaphor, 1 administration) of 0. It also gave a Deaths ([8]; Rats, 100 mg/kg PO, 2% Brij 35, 1 administration) of 0, a Deaths ([8]; Rats, 100 mg/kg PO, 10% Arlacel 83/Corn Oil, 1 administration) of 0 and a Deaths ([8]; Rats, 100 mg/kg PO, 100% PEG400, 1 administration) of 0. For the same compound, the Deaths ([8]; Rats, 100 mg/kg PO, 110% Encapsin CD, 1 administration) was 0, the Deaths ([8]; Rats, 200 mg/kg PO, 100% Cremaphor, 1 administration) was 0 and the “Other Signs of Toxicity” value ([8]; mouse, iv, 5 mg/kg) was “NONE”. The “Other Signs of Toxicity” value ([8]; mouse, iv, 30 mg/kg) was “NONE”, the “Other Signs of Toxicity” value ([8]; mouse, iv, 40 mg/kg) was “NONE” and the “Other Signs of Toxicity” value ([8]; mouse, iv, 50 mg/kg) was “Abnormal Clin Obs”. The “Other Signs of Toxicity” value ([8]; mouse, po, 800 mg/kg) was “NONE”, the “Other Signs of Toxicity” value ([8]; mouse, po, 1000 mg/kg) was “NONE” and the “Other Signs of Toxicity” value ([8]; rat, iv, 10 mg/kg) was “NONE”. For the same compound, the “Other Signs of Toxicity” value ([8]; rat, iv, 20 mg/kg) was “NONE”, the “Other Signs of Toxicity” value ([8]; rat, po, 50 mg/kg) was “NONE” and the “Other Signs of Toxicity” value ([8]; rat, po, 80 mg/kg) was “NONE”. For the same compound, the “Other Signs of Toxicity” value ([8]; rat, po, 100 mg/kg) was “NONE”, the “Other Signs of Toxicity” value ([8]; rat, po, 200 mg/kg) was “NONE” and the zone of inhibition at 1000 µg/mL [5] was 19 mm. The bioavailability ([6]; po, 80 mg/kg, Rats, 80 mg/kg PO, 10% Cremaphor (Table 8 footnote 1), read-out: F) was about 2%, the bioavailability ([6]; po, 100 mg/kg, Rats, 100 mg/kg PO, 2% Brij 35 (Table 8 footnote 4), read-out: F) was about 100% and the bioavailability ([6]; po, 100 mg/kg, Rats, 100 mg/kg PO, 10% Arlacel 83/Corn Oil (Table 8 footnote 3), read-out: F) was about 37%. The bioavailability ([6]; po, 100 mg/kg, Rats, 100 mg/kg PO, 100% PEG400 (Table 8 footnote 2), read-out: F) was about 50%, the bioavailability ([6]; po, 100 mg/kg, Rats, 100 mg/kg PO, Encapsin CD (Table 8 footnote 2), read-out: F) was about 50% and the Deaths ([9]; mice, 15 mg/kg IP, 2.5% CD, 17 injections) was 0. For the same compound, the Deaths ([9]; mice, 30 mg/kg IP, DMSO, 15 injections) was 0, the Deaths ([9]; mice, 60 mg/kg IP, 10% CD, 1 injection) was 0 and the “toxicity” value ([9]; mice, IP, at several times the therapeutic dose) was “non-toxic”. For the same compound, the “Other Signs of Toxicity” value ([9]; 15 mg/kg) was “NONE”, the “Other Signs of Toxicity” value ([9]; 30 mg/kg) was “NONE” and the “Other Signs of Toxicity” value ([9]; 60 mg/kg) was “NONE”. For the same compound, the IC50 [7] was 0.35 µg/mL (≈ 1.55 µM) and the IC50 (Clostridium perfringens) was 1 µg/mL (≈ 4.42 µM).
